{"source": "patent US20250108049A1", "about": "“COMPOUNDS FOR TREATING MDS-ASSOCIATED ANEMIAS AND OTHER CONDITIONS” (Agios Pharmaceuticals, Inc., priority 2021, published 2025)", "key": {"Polg^D257A mice [1]": {"system": "Polg^D257A mice", "assay": "Bone marrow aspirate flow cytometry of erythroblast populations in Polg^D257A mice (Example 3)", "format": "in vivo, mouse", "details": "10 mg/kg/day in chow, 8 months of treatment", "experimental": "(§1) To determine the impacts of mitapivat and Compound 1 under these conditions, bone marrow aspirates from diseased mice were collected and populations of erythroblasts were evaluated at various stages of maturation using flow cytometry. Hemoglobin (Hb), red blood cell (RBC) counts, and reticulocyte fractions were also monitored every 4 weeks in whole blood on a Sysmex XN-1000™ hematology analyzer to determine if disease burden and impact on erythroblast maturation could be detected in the periphery. Pharmacodynamics and pharmacokinetic analysis were also performed to confirm appropriate exposure and target engagement of the compounds (data not shown).\n(§2) A second experiment was performed using the Polg^D257A model (RRID:IMSR_JAX:017341) from Example 2. In this experiment 20 mice (10 males and 10 females per group) were dosed with either mitapivat or Compound 1 in chow as described in Example 2. For the mitapivat group, the compound was dosed at 200 mg/kg/day and for the Compound 1 group, Compound 1 was dosed at 10 mg/kg/day. Treatment was started when the mice were 4 months of age and was continued for 8 months (rolling enrollment). Following 8 months of treatment (at 12 months of age), an evaluation of bone marrow aspirates was conducted by flow cytometry using well established markers of erythropoiesis following a modified procedure outlined in Suragani et al., Nat Med 2014 Apr; 20(4):408-14. Bone marrow aspirates were treated with ACK lysis buffer for 3 minutes to remove red blood cells from the sample. Remaining cells were washed and maintained in PBS+5% FBS throughout the remainder of the procedure. The flow cytometry panel included live/dead (Indol), B220 (BV421), CD5 (BV421), CD71 (AF700), and Terl19 (PE) antibodies. The gating strategy used for analysis was as follows: Live/B220-CD5-/Terl19+. Ter119+cells were then gated into populations using CD71 and FSC as outlined in the literature (Suragani et al., Nat Med 2014 Apr; 20(4):408-14; FIG. 6E). […] FIG. 6D. Flow cytometry data on the mitapivat treated Polg^D257A mice is not available as the mitapivat treatment arm is not yet completed."}, "Polg^D257A mice [2]": {"system": "Polg^D257A mice", "assay": "Whole blood Hb, RBC and reticulocyte analysis in Polg^D257A mice, second experiment (Example 3)", "format": "in vivo, mouse", "experimental": "as §1, §2\nData not shown. After 24 weeks (6 months thus far) of treatment, mitapivat increased Hb and RBC counts by 7% in Polg^D257A mice, with no change in reticulocytes. Data not shown. After 32 weeks of treatment with Compound 1 no change in Hb, RBC count, or reticulocyte fraction was observed. Data not shown."}, "NHD13 mice [3]": {"system": "NHD13 mice", "assay": "Bone marrow aspirate flow cytometry of erythroblast populations in NHD13 mice (Example 5)", "format": "in vivo, mouse", "details": "NHD13 mice aged 4 months, in chow, 20 weeks of treatment; mild disease in model", "experimental": "as §1\nA NUP98-HOXD13 (NHD13) transgenic MDS associated mouse model will also be used to assess the therapeutic benefit of disclosed compounds. See e.g., Lin et al., Blood 2005 Jul 1;106(1):287-95 and Suragani et al., Nat Med 2014 Apr;20(4):408-14. […] A full blood panel and erythroid precursor analysis will be conducted after 2 months of treatment, and results will be analyzed.\nUsing Example 4, 20 NHD13 mice (10 males and 10 females per group; RRID:IMSR_JAX:010505) aged 4 months were randomized into treatment groups using matched distribution of hemoglobin levels. […] After 20 weeks of treatment with either mitapivat or Compound 1, bone marrow aspirates of the NHD13 mice were collected as described above and analyzed by flow cytometry. […]"}, "NHD13 mice [4]": {"system": "NHD13 mice", "assay": "Whole blood hematology in NHD13 mice (Example 5)", "format": "in vivo, mouse", "details": "NHD13 mice aged 4 months, in chow, 20 weeks of treatment", "experimental": "as §1\nA NUP98-HOXD13 (NHD13) transgenic MDS associated mouse model will also be used to assess the therapeutic benefit of disclosed compounds. See e.g., Lin et al., Blood 2005 Jul 1;106(1):287-95 and Suragani et al., Nat Med 2014 Apr;20(4):408-14. Male and female NHD13 mice aged to 4 or 10 months will be administered a disclosed compound in chow, ad libitum (e.g., mitapivat or Compound 1) daily. A full blood panel and erythroid precursor analysis will be conducted after 2 months of treatment, and results will be analyzed.\nUsing Example 4, 20 NHD13 mice (10 males and 10 females per group; RRID:IMSR_JAX:010505) aged 4 months were randomized into treatment groups using matched distribution of hemoglobin levels. Mice were dosed with either mitapivat or Compound 1 for 20 weeks in the same manner (in chow, ad libitum) as Example 3. After 20 weeks of treatment with either mitapivat or Compound 1, bone marrow aspirates of the NHD13 mice were collected as described above and analyzed by flow cytometry. […] In addition, a significant decline in survival of vehicle control NHD13 mice as previously reported (Lin et al., […] 2005 July;106(1)) was not observed. […] This mild state of disease was also supported in whole blood analysis. […] Data not shown."}, "Polg^D257A mice [5]": {"system": "Polg^D257A mice", "assay": "Mitapivat in Polg^D257A MDS-associated anemia mouse model, whole blood hematology (Example 2)", "format": "in vivo", "details": "200 mg/kg/day in chow", "experimental": "as §1\nMitochondrial disruption has been linked to the development of anemia in MDS patients (see, e.g., Chen et al. Blood. 2009; 114(19):4045-53). Mitochondria play a key role in regulation of apoptosis, which is a mechanism highlighted in defunct hematopoiesis of MDS (Green et al., Science 1998; 281(5381):1309-1312, Kerbauy et al., Exp Hematol. 2007; 35(11): 1739-1746; Ahlqvist et al. Nature Communications. 2015; 6:6494). B6.12957(Cg)-Polg^tm1prol/J, or Polg^D257A, is a mouse model with a mutation in the N-terminus of the DNA polymerase γ gene that results in impaired proofreading activity in the mitochondria, leading to increased mtDNA mutagenesis (Jackson Laboratory #017341). See, Chen et al. Blood. 2009; 114(19):4045-53 and Ahlqvist et al. Nature Communications. 2015; 6:6494. […] Here, we used the Polg^D257A mouse model to evaluate the therapeutic benefit of a PK activator, mitapivat, in this mechanism of anemia.\nMale and female Polg^D257A mice were administered 200 mg/kg/day mitapivat in chow, ad libitum, for 18 weeks starting at 7.5 months of age, once anemic phenotype was established by hematology analysis. Whole blood was collected via tail vein into EDTA tubes and analyzed using a Sysmex XN-2000™ hematology system according to manufacturer protocol. Hemoglobin, red blood cells (RBCs), and reticulocytes were monitored every 2-4 weeks to track disease progression and severity. After 18 weeks of mitapivat treatment, RBC counts were elevated by 45% and hemoglobin levels were increased by 2.4 g/dL in mitapivat treated mice compared to untreated mutants.\nSee FIGS. 1A-D and FIGS. 2A-D (C57BL/6J mice were used as controls). […] Commensurate with increased hemoglobin was a marked decrease (about 30%) in reticulocyte count."}, "[6]": {"details": "10 mg/kg/day in chow, after 32 weeks of treatment"}, "[7]": {"details": "male and female Polg^D257A mice, after 18 weeks"}, "[8]": {"details": "200 mg/kg/day in chow, after 24 weeks of treatment"}}, "data": [{"compound": "Cn1c2nc(Cc3cc[nH]n3)sc2c2cnn(Cc3cccc(N)n3)c(=O)c21", "note": "[Compound 1, 2-((1H-pyrazol-3-yl)methyl)-6-((6-aminopyridin-2-yl)methyl)-4-methyl-4H-thiazolo[5′,4′:4,5]pyrrolo[2,3-d]pyridazin-5(6H)-one]", "values": [{"measurement": "late basophilic and polychromatic erythroblasts (EryB) in bone marrow", "setting": "Polg^D257A mice [1]", "result": "increase"}, {"measurement": "orthochromatic and reticulocytes (EryC) in bone marrow", "setting": "Polg^D257A mice [1]", "result": "increase"}, {"measurement": "ProE (proerythrocyte) population in bone marrow", "setting": "Polg^D257A mice [1]; compared to vehicle control Polg^D257A mice", "result": "no additional impact"}, {"measurement": "basophilic erythroblasts (EryA) in bone marrow", "setting": "Polg^D257A mice [1]; vs vehicle control Polg^D257A mice", "result": "reduction"}, {"measurement": "change in Hb", "setting": "Polg^D257A mice [2]; [6]", "result": "no change"}, {"measurement": "change in RBC count", "setting": "Polg^D257A mice [2]; [6]", "result": "no change"}, {"measurement": "change in reticulocyte fraction", "setting": "Polg^D257A mice [2]; [6]", "result": "no change"}, {"measurement": "therapeutic benefit in bone marrow flow cytometry data (erythroblast populations)", "setting": "NHD13 mice [3]", "result": "difficult to detect any therapeutic benefit"}, {"measurement": "reduction in reticulocyte count", "setting": "NHD13 mice [4]", "result": 25, "unit": "%"}, {"measurement": "reduction in reticulocyte fraction (FIG. 8C)", "setting": "NHD13 mice [4]", "result": 20, "unit": "%"}, {"measurement": "response in Hb compared to vehicle controls (FIG. 8A)", "setting": "NHD13 mice [4]", "result": "minimal response"}, {"measurement": "response in RBC count compared to vehicle controls (FIG. 8B)", "setting": "NHD13 mice [4]", "result": "minimal response"}]}, {"compound": "O=C(c1ccc(NS(=O)(=O)c2cccc3cccnc23)cc1)N1CCN(CC2CC2)CC1", "note": "[mitapivat, N-(4-(4-(cyclopropylmethyl)piperazine-1-carbonyl)phenyl)quinoline-8-sulfonamide]", "values": [{"measurement": "decrease in reticulocyte count (FIG. 2C)", "setting": "Polg^D257A mice [5]; Polg^D257A mice", "result": "about 30%"}, {"measurement": "frequency of reticulocytes decreased", "setting": "Polg^D257A mice [5]; Polg^D257A mice, after 18 weeks", "result": 30, "unit": "%"}, {"measurement": "therapeutic benefit (hemoglobin), female mutators", "setting": "Polg^D257A mice [5]; female Polg^D257A mice, after 18 weeks", "result": "responded after 18 weeks"}, {"measurement": "increase in hemoglobin, male mutators", "setting": "Polg^D257A mice [5]; male Polg^D257A mice, starting at 6-weeks post-treatment", "result": "1 to 2", "unit": "g/dL"}, {"measurement": "RBC counts elevated compared to untreated mutants", "setting": "Polg^D257A mice [5]; [7]", "result": 45, "unit": "%"}, {"measurement": "hemoglobin levels increased compared to untreated mutants", "setting": "Polg^D257A mice [5]; [7]", "result": 2.4, "unit": "g/dL"}, {"measurement": "Hb increased", "setting": "Polg^D257A mice [2]; [8]", "result": 7, "unit": "%"}, {"measurement": "RBC counts increased", "setting": "Polg^D257A mice [2]; [8]", "result": 7, "unit": "%"}, {"measurement": "change in reticulocytes", "setting": "Polg^D257A mice [2]; [8]", "result": "no change"}, {"measurement": "therapeutic benefit in bone marrow flow cytometry data (erythroblast populations)", "setting": "NHD13 mice [3]", "result": "difficult to detect any therapeutic benefit"}, {"measurement": "reduction in reticulocyte count", "setting": "NHD13 mice [4]", "result": 15, "unit": "%"}, {"measurement": "reduction in reticulocyte fraction (FIG. 8C)", "setting": "NHD13 mice [4]", "result": 20, "unit": "%"}, {"measurement": "response in Hb compared to vehicle controls (FIG. 8A)", "setting": "NHD13 mice [4]", "result": "minimal response"}, {"measurement": "response in RBC count compared to vehicle controls (FIG. 8B)", "setting": "NHD13 mice [4]", "result": "minimal response"}]}]}
